Reference: patent publication US9365572B2, “PI3K and/or mTOR inhibitor” (XUANZHU PHARMA CO., LTD., priority 2012, dated 2016)

Columns and labels:
AXL = AXL (Homo sapiens (Human), UniProt P30530); assay: Kinase selectivity, Mobility shift assay; assay type: biochemical
Method: (§1) Object: In this assay, the inhibitory activity of the test substance on the kinases listed in Table 3 was determined, and therefore the selectivity of the present compound was determined.
(§2) Except for the BRAF V600E kinase in Table 3, the Mobility shift assay was used for other kinases.
(§3) 1. Preparation of Agents:
(§4) • 1.1 1-fold kinase buffer without MnCl2: 50 mM HEPES, pH 7.5, 0.0015% Brij-35, 10 mM MgCl2, 2 mM DTT. • 1.2 1-fold kinase buffer with MnCl2: 50 mM HEPES, pH 7.5, 0.0015% Brij-35, 10 mM MgCl2, 10 mM MnCl2, 2 mM DTT. • 1.3 Termination solution: 100 mM HEPES, pH 7.5, 0.0015% Brij-35, 0.2% Coating Reagent#3, 50 mM EDTA. • 1.4 2.5-fold kinase solution: The kinase was added to the 1-fold kinase buffer to form a 2.5-fold kinase solution. • 1.5 2.5-fold substrate solution: FAM fluorescence-labelled polypeptide and ATP were added to the 1-fold kinase buffer to form a 2.5-fold substrate solution. 2. Preparation of 5-fold compound
(§5) The final test concentration of the compound was 10 μM at maximum. Firstly, a 50-fold concentration (i.e. 500 μM) was prepared with 100% DMSO. The compound was diluted with 100% DMSO by 5 folds at 5 concentrations (successively 500 μM, 100 μM, 20 μM, 4 μM, and 0.8 μM). After diluting with 1-fold kinase buffer by 10 folds, 5 μl of the samples were transferred to a 384-well reaction plate. Two negative control wells and two positive control wells were set at each line respectively. Replication was made in a 96-well plate in five concentrations of 5-fold compound. 10% DMSO was added to the positive control well, and 5 μl of EDTA (250 mM) was added to the negative control well.
(§6) • 3.1 To the 384-well reaction plate was added 5-fold compound dissolved in 10% DMSO at 5 μl/well. • 3.2 To the 384-well reaction plate was added 2.5-fold kinase solution at 10 μl/well. […] 4. […] 2. […] 3. […] 4.

ERK2 = ERK2 (Homo sapiens (Human), UniProt P28482); assay: Kinase selectivity, Mobility shift assay; assay type: biochemical
Method: as §1, §2, §3, §4, §5, §6

EphA1 = EphA1 (Homo sapiens (Human), UniProt P21709); assay: Kinase selectivity, Mobility shift assay; assay type: biochemical
Method: as §1, §2, §3, §4, §5, §6

FLT3 = FLT3 (Homo sapiens (Human), UniProt P36888); assay: Kinase selectivity, Mobility shift assay; assay type: biochemical
Method: as §1, §2, §3, §4, §5, §6

IRAK4 = IRAK4 (Homo sapiens (Human), UniProt Q9NWZ3); assay: Kinase selectivity, Mobility shift assay; assay type: biochemical
Method: as §1, §2, §3, §4, §5, §6

LCK = LCK (Homo sapiens (Human), UniProt P06239); assay: Kinase selectivity, Mobility shift assay; assay type: biochemical
Method: as §1, §2, §3, §4, §5, §6

PKACa = PKACa (Homo sapiens (Human), UniProt P17612); assay: Kinase selectivity, Mobility shift assay; assay type: biochemical
Method: as §1, §2, §3, §4, §5, §6

RSK2 = RSK2 (Homo sapiens (Human), UniProt P51812); assay: Kinase selectivity, Mobility shift assay; assay type: biochemical
Method: as §1, §2, §3, §4, §5, §6

TAOK2 = TAOK2 (Homo sapiens (Human), UniProt Q9UL54); assay: Kinase selectivity, Mobility shift assay; assay type: biochemical
Method: as §1, §2, §3, §4, §5, §6

Adenosine A3 = Adenosine A3 (Homo sapiens (Human), UniProt P0DMS8); assay: Radioligand binding assay No. 200720; details: test substance 10 μM, read-out: Inhibitory rate (%), Adenosine A3
Adrenergic α2A = Adrenergic α2A (Homo sapiens (Human), UniProt P08913); assay: Radioligand binding assay No. 203620; details: test substance 10 μM, read-out: Inhibitory rate (%), Adrenergic α2A
Adrenergic β1 = Adrenergic β1 (Homo sapiens (Human), UniProt P08588); assay: Radioligand binding assay No. 204010; details: test substance 10 μM, read-out: Inhibitory rate (%), Adrenergic β1
Calcium Channel N-Type = Calcium Channel N-Type (Rattus norvegicus (Rat), UniProt Q02294); assay: Radioligand binding assay No. 216000; details: test substance 10 μM, read-out: Inhibitory rate (%), Calcium Channel N-Type
Cannabinoid CB1 = Cannabinoid CB1 (Homo sapiens (Human), UniProt P21554); assay: Radioligand binding assay No. 217030; details: test substance 10 μM, read-out: Inhibitory rate (%), Cannabinoid CB1
Dopamine D1 = Dopamine D1 (Homo sapiens (Human), UniProt P21728); assay: Radioligand binding assay No. 219500; details: test substance 10 μM, read-out: Inhibitory rate (%), Dopamine D1
[1] = target: Epidermal Growth Factor (EGF) (Homo sapiens (Human), UniProt P00533); assay: Radioligand binding assay No. 225510; details: test substance 10 μM, read-out: Inhibitory rate (%), Epidermal Growth Factor (EGF)
Estrogen ERα = Estrogen ERα (Homo sapiens (Human), UniProt P03372); assay: Radioligand binding assay No. 226010; details: test substance 10 μM, read-out: Inhibitory rate (%), Estrogen ERα
Glutamate, NMDA, Agonism = assay: Radioligand binding assay No. 232810; details: test substance 10 μM; rat
[2] = tested on: Glutamate, NMDA, Phencyclidine; assay: Radioligand binding assay No. 233000; details: test substance 10 μM; rat
Histamine H1 = Histamine H1 (Homo sapiens (Human), UniProt P35367); assay: Radioligand binding assay No. 239610; details: test substance 10 μM, read-out: Inhibitory rate (%), Histamine H1
Neuropeptide Y Y2 = Neuropeptide Y Y2 (Homo sapiens (Human), UniProt P49146); assay: Radioligand binding assay No. 257110; details: test substance 10 μM, read-out: Inhibitory rate (%), Neuropeptide Y Y2
[3] = target: Platelet Activating Factor (PAF) (Homo sapiens (Human), UniProt P25105); assay: Radioligand binding assay No. 265010; details: test substance 10 μM, read-out: Inhibitory rate (%), Platelet Activating Factor (PAF)
Potassium Channel [KATP] = assay: Radioligand binding assay No. 265600; details: test substance 10 μM; Human

Cannabinoid CB1, sequence (P21554 whole entry): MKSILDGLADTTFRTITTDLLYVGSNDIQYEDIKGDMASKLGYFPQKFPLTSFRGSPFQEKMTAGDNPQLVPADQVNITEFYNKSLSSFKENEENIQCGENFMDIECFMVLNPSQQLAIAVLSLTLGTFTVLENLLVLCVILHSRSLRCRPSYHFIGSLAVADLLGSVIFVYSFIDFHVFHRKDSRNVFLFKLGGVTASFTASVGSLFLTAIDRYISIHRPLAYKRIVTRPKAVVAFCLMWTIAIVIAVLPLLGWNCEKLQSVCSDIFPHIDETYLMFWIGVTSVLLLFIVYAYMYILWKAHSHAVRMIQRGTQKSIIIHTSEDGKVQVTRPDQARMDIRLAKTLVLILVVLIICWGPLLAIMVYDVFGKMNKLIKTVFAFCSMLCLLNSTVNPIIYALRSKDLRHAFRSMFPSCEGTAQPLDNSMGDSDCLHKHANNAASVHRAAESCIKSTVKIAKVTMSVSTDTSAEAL
IRAK4, sequence (Q9NWZ3 whole entry, species assumed): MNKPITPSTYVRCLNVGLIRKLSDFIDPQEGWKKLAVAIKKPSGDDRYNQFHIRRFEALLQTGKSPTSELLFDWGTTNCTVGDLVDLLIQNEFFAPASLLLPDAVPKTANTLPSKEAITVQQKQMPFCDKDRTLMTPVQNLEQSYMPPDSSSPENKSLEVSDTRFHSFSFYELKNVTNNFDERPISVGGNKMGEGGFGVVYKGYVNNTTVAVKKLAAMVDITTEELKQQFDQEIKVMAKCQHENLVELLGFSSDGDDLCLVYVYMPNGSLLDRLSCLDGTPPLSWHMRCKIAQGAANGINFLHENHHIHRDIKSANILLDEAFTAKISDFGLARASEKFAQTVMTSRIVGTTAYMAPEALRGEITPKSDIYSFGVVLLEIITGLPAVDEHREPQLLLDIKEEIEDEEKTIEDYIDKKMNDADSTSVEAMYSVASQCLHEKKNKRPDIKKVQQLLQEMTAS
RSK2, sequence (P51812 whole entry, species assumed): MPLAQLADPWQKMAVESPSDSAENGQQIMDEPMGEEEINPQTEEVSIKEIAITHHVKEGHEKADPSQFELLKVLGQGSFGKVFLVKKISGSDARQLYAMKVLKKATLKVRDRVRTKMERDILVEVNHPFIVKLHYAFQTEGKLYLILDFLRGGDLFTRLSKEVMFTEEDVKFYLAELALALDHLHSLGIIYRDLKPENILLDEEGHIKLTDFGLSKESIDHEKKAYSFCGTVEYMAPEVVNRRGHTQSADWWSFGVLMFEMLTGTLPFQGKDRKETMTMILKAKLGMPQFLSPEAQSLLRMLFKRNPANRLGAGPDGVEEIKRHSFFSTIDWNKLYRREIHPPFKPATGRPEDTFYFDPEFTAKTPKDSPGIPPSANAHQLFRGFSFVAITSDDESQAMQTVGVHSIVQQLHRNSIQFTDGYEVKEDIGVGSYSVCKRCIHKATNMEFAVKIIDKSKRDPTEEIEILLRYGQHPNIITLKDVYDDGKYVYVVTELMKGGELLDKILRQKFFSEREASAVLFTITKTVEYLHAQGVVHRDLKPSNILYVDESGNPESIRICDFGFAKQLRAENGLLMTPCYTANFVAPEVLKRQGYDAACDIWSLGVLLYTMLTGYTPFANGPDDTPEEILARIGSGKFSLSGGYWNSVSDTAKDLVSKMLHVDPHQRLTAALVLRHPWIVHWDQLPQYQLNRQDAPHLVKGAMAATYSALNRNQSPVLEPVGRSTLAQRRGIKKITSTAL
EphA1, sequence (P21709 26-976, species assumed): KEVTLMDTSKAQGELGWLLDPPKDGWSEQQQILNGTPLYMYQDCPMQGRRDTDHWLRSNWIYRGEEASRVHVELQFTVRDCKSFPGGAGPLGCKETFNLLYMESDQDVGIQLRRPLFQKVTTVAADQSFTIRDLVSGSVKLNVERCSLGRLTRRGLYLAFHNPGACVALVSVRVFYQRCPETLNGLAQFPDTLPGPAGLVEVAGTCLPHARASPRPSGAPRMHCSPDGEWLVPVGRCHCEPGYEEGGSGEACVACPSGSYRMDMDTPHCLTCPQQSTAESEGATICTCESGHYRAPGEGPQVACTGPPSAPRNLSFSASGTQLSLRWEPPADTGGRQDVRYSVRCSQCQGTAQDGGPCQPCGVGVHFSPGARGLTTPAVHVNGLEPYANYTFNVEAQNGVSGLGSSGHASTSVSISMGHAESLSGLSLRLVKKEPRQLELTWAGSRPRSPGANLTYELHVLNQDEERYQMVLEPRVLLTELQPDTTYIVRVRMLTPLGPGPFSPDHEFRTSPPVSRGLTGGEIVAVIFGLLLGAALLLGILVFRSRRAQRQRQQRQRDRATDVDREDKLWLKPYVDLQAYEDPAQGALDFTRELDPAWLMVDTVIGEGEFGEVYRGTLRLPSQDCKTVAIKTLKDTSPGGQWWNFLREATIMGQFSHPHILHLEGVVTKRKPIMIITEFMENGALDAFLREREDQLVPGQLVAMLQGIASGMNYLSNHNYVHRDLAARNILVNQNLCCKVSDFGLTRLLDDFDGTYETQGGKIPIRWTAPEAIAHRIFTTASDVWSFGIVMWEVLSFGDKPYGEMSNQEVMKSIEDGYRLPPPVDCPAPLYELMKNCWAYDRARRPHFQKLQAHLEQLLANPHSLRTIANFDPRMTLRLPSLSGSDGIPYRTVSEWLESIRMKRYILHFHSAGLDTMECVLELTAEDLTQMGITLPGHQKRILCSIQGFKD
ERK2, sequence (P28482 whole entry, species assumed): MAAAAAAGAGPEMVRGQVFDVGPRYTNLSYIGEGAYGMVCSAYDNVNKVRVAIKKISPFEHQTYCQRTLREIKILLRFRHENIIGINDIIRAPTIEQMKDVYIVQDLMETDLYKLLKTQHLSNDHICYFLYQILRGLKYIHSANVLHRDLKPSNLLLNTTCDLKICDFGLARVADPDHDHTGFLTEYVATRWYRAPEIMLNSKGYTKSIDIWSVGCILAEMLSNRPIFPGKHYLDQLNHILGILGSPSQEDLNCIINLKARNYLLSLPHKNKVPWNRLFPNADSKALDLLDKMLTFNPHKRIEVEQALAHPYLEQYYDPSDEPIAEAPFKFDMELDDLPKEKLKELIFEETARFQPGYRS
Adenosine A3, sequence (P0DMS8 whole entry): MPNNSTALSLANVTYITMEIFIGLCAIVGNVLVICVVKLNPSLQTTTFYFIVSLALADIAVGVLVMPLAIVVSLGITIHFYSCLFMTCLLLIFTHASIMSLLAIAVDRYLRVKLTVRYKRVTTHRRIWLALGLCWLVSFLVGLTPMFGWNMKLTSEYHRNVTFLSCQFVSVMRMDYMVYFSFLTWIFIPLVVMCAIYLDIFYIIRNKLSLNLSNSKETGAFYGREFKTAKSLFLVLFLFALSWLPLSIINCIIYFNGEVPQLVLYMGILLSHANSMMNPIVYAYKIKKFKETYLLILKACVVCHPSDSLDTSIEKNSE
FLT3, sequence (P36888 27-993, species assumed): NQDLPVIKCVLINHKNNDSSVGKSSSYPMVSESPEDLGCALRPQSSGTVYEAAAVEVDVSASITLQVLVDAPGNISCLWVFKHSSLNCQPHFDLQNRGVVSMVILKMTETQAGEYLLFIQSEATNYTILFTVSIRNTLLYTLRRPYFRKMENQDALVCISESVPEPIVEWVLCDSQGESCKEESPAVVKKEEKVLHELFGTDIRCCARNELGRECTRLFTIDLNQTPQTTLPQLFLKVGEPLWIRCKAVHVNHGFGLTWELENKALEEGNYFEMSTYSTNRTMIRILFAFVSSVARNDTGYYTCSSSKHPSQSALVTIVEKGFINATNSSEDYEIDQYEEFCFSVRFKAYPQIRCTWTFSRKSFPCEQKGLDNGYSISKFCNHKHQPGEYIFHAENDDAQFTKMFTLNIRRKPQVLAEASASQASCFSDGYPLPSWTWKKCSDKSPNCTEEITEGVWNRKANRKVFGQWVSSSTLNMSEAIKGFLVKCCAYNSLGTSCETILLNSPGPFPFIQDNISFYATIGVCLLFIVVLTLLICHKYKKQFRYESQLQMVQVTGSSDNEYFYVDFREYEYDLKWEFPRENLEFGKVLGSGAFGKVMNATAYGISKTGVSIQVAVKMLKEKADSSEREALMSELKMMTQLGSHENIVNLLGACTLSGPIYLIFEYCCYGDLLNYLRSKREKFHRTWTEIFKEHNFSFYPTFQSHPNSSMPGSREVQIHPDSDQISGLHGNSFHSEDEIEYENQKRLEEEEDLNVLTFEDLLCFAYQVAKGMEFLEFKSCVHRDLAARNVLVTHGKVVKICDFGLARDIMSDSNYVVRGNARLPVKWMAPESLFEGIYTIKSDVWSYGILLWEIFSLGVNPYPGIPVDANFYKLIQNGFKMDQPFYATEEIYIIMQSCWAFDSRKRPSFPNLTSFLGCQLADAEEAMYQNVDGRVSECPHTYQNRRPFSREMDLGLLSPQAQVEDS
Neuropeptide Y Y2, sequence (P49146 whole entry): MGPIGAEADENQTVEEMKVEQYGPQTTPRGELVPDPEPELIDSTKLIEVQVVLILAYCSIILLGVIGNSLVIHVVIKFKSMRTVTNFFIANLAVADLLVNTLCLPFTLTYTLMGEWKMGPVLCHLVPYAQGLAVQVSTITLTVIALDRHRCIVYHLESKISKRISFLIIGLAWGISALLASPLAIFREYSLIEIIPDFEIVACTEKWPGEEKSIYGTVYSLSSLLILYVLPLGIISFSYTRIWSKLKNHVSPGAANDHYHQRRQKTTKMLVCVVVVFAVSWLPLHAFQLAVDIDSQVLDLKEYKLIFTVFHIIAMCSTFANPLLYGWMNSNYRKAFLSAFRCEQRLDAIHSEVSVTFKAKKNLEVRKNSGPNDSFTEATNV
Platelet Activating Factor (PAF), sequence (P25105 whole entry): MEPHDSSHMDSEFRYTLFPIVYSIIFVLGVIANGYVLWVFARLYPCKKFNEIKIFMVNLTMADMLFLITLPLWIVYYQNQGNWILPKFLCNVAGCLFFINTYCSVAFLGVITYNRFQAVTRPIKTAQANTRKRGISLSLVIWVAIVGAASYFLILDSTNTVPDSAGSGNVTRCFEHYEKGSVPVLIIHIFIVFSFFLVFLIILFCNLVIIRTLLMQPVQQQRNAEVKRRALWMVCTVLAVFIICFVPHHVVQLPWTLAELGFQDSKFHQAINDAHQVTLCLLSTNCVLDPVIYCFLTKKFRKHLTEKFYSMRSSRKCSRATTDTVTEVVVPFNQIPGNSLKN

Nc1ccc(-c2ccc3ncc4c(=O)[nH]c(=O)n(-c5cccc(C(F)(F)F)c5)c4c3n2)cn1 [Compound 5, 9-(6-aminopyridin-3-yl)-1-(3-(trifluoromethyl)phenyl)pyrimido[5,4-c][1,5]naphthyridine-2,4(1H,3H)-dione]
IC50 (AXL): 2140 nM | IC50 (ERK2): > 10000 nM | IC50 (EphA1): 1470 nM | IC50 (FLT3): 6250 nM | IC50 (IRAK4): > 10000 nM | IC50 (LCK): 1130 nM | IC50 (PKACa): > 10000 nM | IC50 (RSK2): > 10000 nM | IC50 (TAOK2): > 10000 nM | inhibition at 10 µM (Adenosine A3): 11% | inhibition at 10 µM (Adrenergic α2A): 19% | inhibition at 10 µM (Adrenergic β1): 0% | inhibition at 10 µM (Calcium Channel N-Type): -22% | inhibition at 10 µM (Cannabinoid CB1): 25% | inhibition at 10 µM (Dopamine D1): 21% | inhibition at 10 µM [1]: 11% | inhibition at 10 µM (Estrogen ERα): 17% | Inhibitory rate (%), Glutamate, NMDA, Agonism (Glutamate, NMDA, Agonism): 29% | Inhibitory rate (%), Glutamate, NMDA, Phencyclidine [2]: 8% | inhibition at 10 µM (Histamine H1): 10% | inhibition at 10 µM (Neuropeptide Y Y2): 10% | inhibition at 10 µM [3]: 20% | Inhibitory rate (%), Potassium Channel [KATP] (Potassium Channel [KATP]): 11%
